Source: patent US11371061B2, “Compositions and methods for improving viral vector efficiency” (GENETHON, priority 2015, dated 2022)
Where no end group is shown, it is not given here.

What was measured:
HCT116 cells = type: cell-based, human

YGRKKRRQRRR GG TNVFNATFEIWHDGEFGTINNFRLGRLPSV (YGRKKRRQRRRGGTNVFNATFEIWHDGEFGTINNFRLGRLPSV; Synthetic TB1 267-296) [Tat-Bec(267-296)]
dose capable to promote optimal lentiviral transduction (HCT116 cells): ≥ 1 µM

KLALKLALKALKAALKA G TNVFNATFEIWHDGEFGT (KLALKLALKALKAALKAGTNVFNATFEIWHDGEFGT; Synthetic MAP-B1) [MAP-Beclin1]
capacity to promote lentiviral transduction (HCT116 cells): as efficient as TB1

YGRKKRRQRRR GG TNVFNATFHIWHSGQFGT (YGRKKRRQRRRGGTNVFNATFHIWHSGQFGT; Synthetic TB WT) [Tat-BecWT]
capacity to promote lentiviral transduction at 2.5 μM (HCT116 cells): capable to promote lentiviral transduction as efficiently as TB1 | capacity to promote lentiviral transduction at 5 μM (HCT116 cells): no longer active | effect on lentiviral transduction at 100 nM (HCT116 cells): no effect | optimal dose to promote lentiviral transduction (HCT116 cells): 1 µM

KKALLHAALAHLLALAHHLLALLKKA-NH2 [Vectofusin-1]
aggregation of viral particles (pull-down) (VSV-G-LV particles): aggregation of viral particles, like it is the case for Vectofusin-1

YGRKKRRQRRR GG FEIWHDGEFGTINNFRLGRLPSVPV (YGRKKRRQRRRGGFEIWHDGEFGTINNFRLGRLPSVPV; Synthetic TB1 274-298) [Tat-Bec(274-298)]
capacity to promote lentiviral transduction at 2.5 μM (HCT116 cells): most of the derivatives are a lot more efficient than TB1, except for Tat-Bec(274-298)

YGRKKRRQRRR GG INCFTATFEIWVEGPLGV (YGRKKRRQRRRGGINCFTATFEIWVEGPLGV; Synthetic TAT+ GG + Beclin2) [Tat-Bec2WT]
effect on lentiviral transduction at 100 nM (HCT116 cells): three-folds | lentiviral transduction at 100 nM (HCT116 cells): 30% | optimal dose to promote lentiviral transduction (HCT116 cells): 0.5 µM

YGRKKRRQRRR TNVFNATFEIWHDGEFGTINNFRLGRLPSV (YGRKKRRQRRRTNVFNATFEIWHDGEFGTINNFRLGRLPSV; Synthetic modified Tat-Beclin-1 + beclin-1 285-296) [Tat-Bec(267-296)dGG]
increase of the level of viral transduction (HCT116 cells): nearly five folds

TNVFNATFEIWHDGEFGT (Synthetic modified beclin-1 267-284) [the 267-284 modified beclin1 domain, reference compound]
capacity to promote lentiviral transduction (HCT116 cells): neither Tat nor Bec peptides are capable to promote lentiviral transduction

YGRKKRRQRRR (Synthetic Tat (47-57)) [the Tat transduction domain, reference compound]
capacity to promote lentiviral transduction (HCT116 cells): neither Tat nor Bec peptides are capable to promote lentiviral transduction

YGRKKRRQRRR GG TNVFNATFHIWHSGQFGTINNFRLGRLPSV (YGRKKRRQRRRGGTNVFNATFHIWHSGQFGTINNFRLGRLPSV; Synthetic TB WT 267-296) [Tat-Bec(267-296)WT]
capacity to promote lentiviral transduction at 2.5 μM (HCT116 cells): promoting the lentiviral transduction but less efficiently than the Tat-Bec(267-296) peptide

YGRKKRRQRRR GG VENQMRYAQTQLDKLKKTNVFNATFEIWHDGEF (YGRKKRRQRRRGGVENQMRYAQTQLDKLKKTNVFNATFEIWHDGEF; Synthetic TB1 250-282) [Tat-Bec(250-282)]
capacity to promote lentiviral transduction at 2.5 μM (HCT116 cells): most performant peptide at a low dose
